In patent US20260365682A1, “MODULATORS OF TNF-ALPHA ACTIVITY” (Forward Therapeutics, Inc., priority 2022, published 2026):
pIC50: −log10 of the molar value.

target: T1, TNF-α (Homo sapiens, UniProt P01375); assay: TNF-α Induced HEK Blue Cellular Assay (secreted alkaline phosphatase expression, QUANTI-Blue); assay type: cell-based; conditions: HEK Blue TNFα reporter cells; TNF-α 100 μg/ml; 24 hrs at 37° C.; inhibition of secreted alkaline phosphatase; read-out: IC50 value
T1 construct: purchased R&D 210-TA-020/CF
T1 sequence (P01375 77-233 limits assumed): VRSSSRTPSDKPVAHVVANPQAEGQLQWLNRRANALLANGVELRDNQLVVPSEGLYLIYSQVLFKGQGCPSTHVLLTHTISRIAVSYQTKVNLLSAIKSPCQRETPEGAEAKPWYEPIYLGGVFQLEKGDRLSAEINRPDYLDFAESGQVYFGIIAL
Procedure, shortened: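 Compound was serially diluted from […] to 0.5 nM final, then incubated with 10,000 HEK Blue TNFα reporter cells per well and […] TNF-α for 24 h at 37° C. SEAP output was read by QUANTI-Blue absorbance at 620 nm. Inhibition was background-corrected against DMSO controls with and without stimulation, and IC50 was fitted with a 4-parameter logistic equation.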

Row | pIC50 | SMILES
1 | 6.00 to 7.00 | [2H]C([2H])([2H])N1C(=O)c2cccc(OC(F)F)c2[C@H]2C[C@@H]1c1nc3ccc(C#CC(C)CN4CC(F)C4)cc3n12 (stereo partly drawn) [Example 248, (7R,14R)-1-(difluoromethoxy)-11-(4-(3-fluoroazetidin-1-yl)-3-methylbut-1-yn-1-yl)-6-(methyl-d3)-6,7-dihydro-7,14-methanobenzo[f]benzo[4,5]imidazo[1,2-a][1,4]diazocin-5(14H)-one]
2 | > 7.00 | [2H]C([2H])([2H])N1C(=O)c2cccc(OC(F)F)c2[C@H]2C[C@@H]1c1nc3ccc(C#Cc4cnc(N)nc4)cc3n12 [Example 249, (7R,14R)-11-((2-aminopyrimidin-5-yl)ethynyl)-1-(difluoromethoxy)-6-(methyl-d3)-6,7-dihydro-7,14-methanobenzo[f]benzo[4,5]imidazo[1,2-a][1,4]diazocin-5(14H)-one]
3 | > 7.00 | [2H]C([2H])([2H])N1C(=O)c2cccc(OC(F)F)c2[C@H]2C[C@@H]1c1nc3ccc(C#CC4(O)CN(C5COC5)C4)cc3n12 [Example 250, (7R,14R)-1-(difluoromethoxy)-11-((3-hydroxy-1-(oxetan-3-yl)azetidin-3-yl)ethynyl)-6-(methyl-d3)-6,7-dihydro-7,14-methanobenzo[f]benzo[4,5]imidazo[1,2-a][1,4]diazocin-5(14H)-one]
4 | 4.52 to 5.00 | [2H]C([2H])([2H])N1C(=O)c2cccc(OC(F)F)c2[C@H]2C[C@@H]1c1nc3ccc(C#CC4(O)CNC4)cc3n12 [Example 251, (7R,14R)-1-(difluoromethoxy)-11-((3-hydroxyazetidin-3-yl)ethynyl)-6-(methyl-d3)-6,7-dihydro-7,14-methanobenzo[f]benzo[4,5]imidazo[1,2-a][1,4]diazocin-5(14H)-one]
5 | > 7.00 | [2H]C([2H])([2H])N1C(=O)c2cccc(OC(F)F)c2[C@H]2C[C@@H]1c1nc3ccc(C#CC4(F)CN(C5COC5)C4)cc3n12 [Example 252, (7R,14R)-1-(difluoromethoxy)-11-((3-fluoro-1-(oxetan-3-yl)azetidin-3-yl)ethynyl)-6-(methyl-d3)-6,7-dihydro-7,14-methanobenzo[f]benzo[4,5]imidazo[1,2-a][1,4]diazocin-5(14H)-one]
6 | > 7.00 | [2H]C([2H])([2H])N1C(=O)c2cccc(OC(F)F)c2[C@H]2C[C@@H]1c1nc3ccc(C#CC4(F)CNC4)cc3n12 [Example 253, (7R,14R)-1-(difluoromethoxy)-11-((3-fluoroazetidin-3-yl)ethynyl)-6-(methyl-d3)-6,7-dihydro-7,14-methanobenzo[f]benzo[4,5]imidazo[1,2-a][1,4]diazocin-5(14H)-one]
7 | > 7.00 | [2H]C([2H])([2H])N1C(=O)c2cccc(OC(F)F)c2[C@H]2C[C@@H]1c1nc3ccc(C#C[C@H]4C[C@H](NC)C4)cc3n12 [Example 254, (7R,14R)-1-(difluoromethoxy)-6-(methyl-d3)-11-(((1r,3R)-3-(methylamino)cyclobutyl)ethynyl)-6,7-dihydro-7,14-methanobenzo[f]benzo[4,5]imidazo[1,2-a][1,4]diazocin-5(14H)-one]
8 | > 7.00 | [2H]C([2H])([2H])N1C(=O)c2cccc(OC(F)F)c2[C@H]2C[C@@H]1c1nc3ccc(C#Cc4ccc(NC(C)=O)nc4)cc3n12 [Example 255, N-(5-(((7R,14R)-1-(difluoromethoxy)-6-(methyl-d3)-5-oxo-5,6,7,14-tetrahydro-7,14-methanobenzo[f]benzo[4,5]imidazo[1,2-a][1,4]diazocin-11-yl)ethynyl)pyridin-2-yl)acetamide]
9 | > 7.00 | [2H]C([2H])([2H])N1C(=O)c2cccc(OC(F)F)c2[C@H]2C[C@@H]1c1nc3ccc(C#CC4CN(C5COC5)C4(C)C)cc3n12 (stereo partly drawn) [Example 256, (7R,14R)-1-(difluoromethoxy)-11-((2,2-dimethyl-1-(oxetan-3-yl)azetidin-3-yl)ethynyl)-6-(methyl-d3)-6,7-dihydro-7,14-methanobenzo[f]benzo[4,5]imidazo[1,2-a][1,4]diazocin-5(14H)-one]
10 | > 7.00 | [2H]C([2H])([2H])N1C(=O)c2cccc(OC(F)F)c2[C@H]2C[C@@H]1c1nc3ccc(C#Cc4cnc(NC(C)=O)nc4)cc3n12 [Example 259, N-(5-(((7R,14R)-1-(difluoromethoxy)-6-(methyl-d3)-5-oxo-5,6,7,14-tetrahydro-7,14-methanobenzo[f]benzo[4,5]imidazo[1,2-a][1,4]diazocin-11-yl)ethynyl)pyrimidin-2-yl)acetamide]
11 | > 7.00 | [2H]C([2H])([2H])N1C(=O)c2cccc(OC(F)F)c2[C@H]2C[C@@H]1c1nc3ccc(C#Cc4nnc(NC(C)=O)s4)cc3n12 [Example 260, N-(5-(((7R,14R)-1-(difluoromethoxy)-6-(methyl-d3)-5-oxo-5,6,7,14-tetrahydro-7,14-methanobenzo[f]benzo[4,5]imidazo[1,2-a][1,4]diazocin-11-yl)ethynyl)-1,3,4-thiadiazol-2-yl)acetamide]
12 | > 7.00 | [2H]C([2H])([2H])N1C(=O)c2cccc(OC(F)F)c2[C@H]2C[C@@H]1c1nc3ccc(C#Cc4nnc(NC(=O)OC(C)(C)C)s4)cc3n12 [Example 261, tert-butyl (5-(((7R,14R)-1-(difluoromethoxy)-6-(methyl-d3)-5-oxo-5,6,7,14-tetrahydro-7,14-methanobenzo[f]benzo[4,5]imidazo[1,2-a][1,4]diazocin-11-yl)ethynyl)-1,3,4-thiadiazol-2-yl)carbamate]
13 | > 7.00 | [2H]C([2H])([2H])N1C(=O)c2cccc(OC(F)F)c2[C@H]2C[C@@H]1c1nc3ccc(C#CC#N)cc3n12 [Example 262, 3-((7R,14R)-1-(difluoromethoxy)-6-(methyl-d3)-5-oxo-5,6,7,14-tetrahydro-7,14-methanobenzo[f]benzo[4,5]imidazo[1,2-a][1,4]diazocin-11-yl)propiolonitrile]
14 | > 7.00 | [2H]C([2H])([2H])N1C(=O)c2cccc(OC(F)F)c2[C@H]2C[C@@H]1c1nc3ccc(C#Cc4nnc(N)s4)cc3n12 [Example 263, (7R,14R)-11-((5-amino-1,3,4-thiadiazol-2-yl)ethynyl)-1-(difluoromethoxy)-6-(methyl-d3)-6,7-dihydro-7,14-methanobenzo[f]benzo[4,5]imidazo[1,2-a][1,4]diazocin-5(14H)-one]
